The NIST ThermoML archive (doi:10.1016/j.fluid.2015.09.030)
Numbers after ± are expanded uncertainties. One block for each compound: values may come before it.

Conditions: Liquid, Ebulliometric method (Recirculating still)

SMILES: CCCCCCCCCC [decane]
vapor or sublimation pressure (447.46 K): 101.33 ± 0.46 kPa

SMILES: Cc1ccc(C)s1 [2,5-dimethylthiophene]
vapor or sublimation pressure (409.96 K): 101.33 ± 0.46 kPa

SMILES: Cc1cc(C)cc(C)c1 [1,3,5-trimethylbenzene]
vapor or sublimation pressure (437.83 K): 101.33 ± 0.46 kPa

SMILES: CCO [ethanol]
vapor or sublimation pressure (351.45 K): 101.33 ± 0.46 kPa

The remaining lines, values ahead:

vapor or sublimation pressure (407.14 K): 101.33 ± 0.46 kPa
SMILES: CCc1cccs1 [2-ethylthiophene]

vapor or sublimation pressure (353.15 K): 101.33 ± 0.46 kPa
SMILES: c1ccccc1 [benzene]
